Biological target: T1, mutant BKCa channel (G803D/N806K) (Rattus norvegicus, UniProt Q62976, G803D/N806K)
T1 construct: expressed in transfected cells
Test: Cell-based TI+ fluorescence (FluxOR) assay in AD-293 cells
Conditions: for TI+-fluorescence enhancement (initial RFU increase): 10 μM, n=4
Experimental: AD-293 cells (Lee et al., 2013), as a modified HEK293 cell for expressing a mutant BKCa channel, were placed in DMEM (Dulbecco's Modified Eagle's medium) supplemented with 10% fetal bovine serum and 1 mg/ml geneticin (Gibco) as an antibiotic. The cells were cultured under a humidified condition of 5% CO2 and 37° C.
AD-293 cells stably expressing the mutant BKCa channel (G803D/N806K) were used for cell-based assays (Lee et al., 2013). Approximately 20,000 cells/well were inoculated on a black-wall assay plate (Corning Incorporated) coated with poly-D-lysine (Sigma-Aldrich), which is 96-well clear-bottom. A FluxOR™ […] (Invitrogen) was used for initial screening of compound libraries, and for further assay of candidate compounds. Experiments were performed according to the manufacturer's following guidelines: growth medium was replaced with 80 μl/well of loading buffer containing FluxOR™ fluorescent dye, and incubation was carried out for 1 hour under a light-free condition. After the incubation, the loading buffer was replaced with 100 μl/well of assay buffer containing various concentrations of compounds of interest, followed by incubation for 20 minutes to 30 minutes. DMSO (1%) was vehicle and the vehicle was used for all test compounds. CTBIC (Cormemis et al. 2005; Lee et al. 2012), previously identified as an activator of the BKCa channel, was used as a positive control. For fluorescence measurements, synergy TM H1 hybrid multi-mode microplate reader (BioTek Instrument Inc., Winnoski, Vt.) and Cen5 software was used in initial screening. For additional assays, Flexstation 3 multi-mode microplate reader (Molecular Devices) and SoftMax®Pro software were used, respectively. A fluorescence signal was obtained at an excitation wavelength of 485 nm and an emission wavelength of 528 nm. Membrane polarization was induced by a stimulus buffer containing thallium ion. The fluorescence signal was measured under two conditions: every 10 seconds for 2 minutes before treating the stimulation buffer and then every 10 seconds for 3 minutes after addition of stimulation buffer for synergy H1, and every 2 seconds for 20 seconds before stimulus buffer treatment, and then every 2 seconds for 160 seconds after adding the stimulus buffer for FlexStation 3.
A fluorescence signal change was measured based on a relative fluorescence unit (RFU) or F/F0 where F0 is ta minimum fluorescence value of each fluorescence trace. To quantitatively compare activation effects of kurarinone and its derivatives, an initial fluorescence increase was calculated using first three points after treatment with the stimulation buffer, and a linear slope was predicted using OriginPro 9.1 (OriginLab Corp., Northampton, Mass.).

T1 sequence (Q62976 whole entry G803D/N806K): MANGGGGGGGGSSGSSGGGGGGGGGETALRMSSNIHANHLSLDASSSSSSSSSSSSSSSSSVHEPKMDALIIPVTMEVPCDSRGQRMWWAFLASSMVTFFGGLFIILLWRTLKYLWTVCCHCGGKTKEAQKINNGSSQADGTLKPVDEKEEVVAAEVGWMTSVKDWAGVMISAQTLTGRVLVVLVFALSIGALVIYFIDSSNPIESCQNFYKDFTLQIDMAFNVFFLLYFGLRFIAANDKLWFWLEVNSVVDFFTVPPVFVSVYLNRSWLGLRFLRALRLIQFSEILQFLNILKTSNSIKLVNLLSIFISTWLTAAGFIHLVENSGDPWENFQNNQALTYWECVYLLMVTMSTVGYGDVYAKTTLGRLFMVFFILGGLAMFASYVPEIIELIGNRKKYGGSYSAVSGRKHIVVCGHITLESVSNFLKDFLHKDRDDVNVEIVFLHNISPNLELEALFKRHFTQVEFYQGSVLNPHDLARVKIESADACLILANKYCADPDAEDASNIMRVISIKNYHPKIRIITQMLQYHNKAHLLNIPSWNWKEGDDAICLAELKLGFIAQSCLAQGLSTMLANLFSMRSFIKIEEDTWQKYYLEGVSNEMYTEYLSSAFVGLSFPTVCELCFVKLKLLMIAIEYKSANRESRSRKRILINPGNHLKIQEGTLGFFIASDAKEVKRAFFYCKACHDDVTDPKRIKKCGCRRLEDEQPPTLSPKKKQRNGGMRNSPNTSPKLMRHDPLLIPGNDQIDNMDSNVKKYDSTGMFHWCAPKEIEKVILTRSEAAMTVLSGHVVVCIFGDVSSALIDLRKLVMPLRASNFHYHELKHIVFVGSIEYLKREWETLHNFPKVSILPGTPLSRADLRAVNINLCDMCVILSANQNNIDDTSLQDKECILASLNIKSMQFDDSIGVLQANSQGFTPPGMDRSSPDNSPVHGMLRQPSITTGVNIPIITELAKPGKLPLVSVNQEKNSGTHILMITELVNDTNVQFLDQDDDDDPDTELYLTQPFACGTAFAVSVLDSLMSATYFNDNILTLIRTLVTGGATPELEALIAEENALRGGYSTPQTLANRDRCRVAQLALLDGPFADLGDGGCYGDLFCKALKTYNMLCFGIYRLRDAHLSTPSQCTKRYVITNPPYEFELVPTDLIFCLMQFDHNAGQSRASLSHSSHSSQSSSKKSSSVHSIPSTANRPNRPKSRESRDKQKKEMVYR

TI+-fluorescence enhancement (initial RFU increase)	SMILES	block of kurarinone-induced fluorescence enhancement (co-treatment of 1 μM blocker with kurarinone (5 μM))
weaker fluorescence effects	C=C(C)[C@H](CCC(C)(C)O)Cc1c(O)cc(OC)c2c1O[C@H](c1ccc(O)cc1O)CC2=O [kurarinol, reference compound]	–
strong fluorescence increase	O=C1C[C@@H](c2ccc(O)cc2)Oc2cc(O)cc(O)c21 [naringenin]	–
–	CC(C)(O)[C@H]1O[C@H]2CC[C@@]3(C)[C@@](O)(CC[C@H]4Cc5c([nH]c6ccccc56)[C@@]43C)C2=CC1=O [pacilin, reference compound]	completely blocked

SMILES	TI+-fluorescence enhancement (initial RFU increase)	block of kurarinone-induced fluorescence enhancement (co-treatment of 1 μM blocker with kurarinone (5 μM))
CC(C)=CCc1c(O)cc(O)c2c1O[C@H](c1ccc(O)cc1O)CC2=O [leachianone G]	strong fluorescence increase	–

From patent publication US11517556B2, “Composition for BKCa channel activation” (GWANGJU INSTITUTE OF SCIENCE AND TECHNOLOGY, priority 2016, dated 2022)
